The record followed here is patent US11498896B2 (The Broad Institute, Inc., priority 2014, dated 2022).

The structures appear in SMILES notation. Like-named read-outs stand apart in the source and are kept apart here.

The target in data set [1] is D2 receptor (Homo sapiens (Human), UniProt P14416). Briefly: D2 radioligand binding assay.
For data set [2], the target named is T1, human D2R/β-arrestin (Homo sapiens (Human), UniProt P14416). Briefly: β-arrestin agonist assay (PathHunter). The class given is cell-based. Particulars: CHO-K1 cells expressing human D2R/β-arrestin; agonist mode. On the procedure: The detection reagent (9.6 μL, Buffer:Emerald II:Galactor-Star in a 19:5:1 ratio, i.e., 14.06 mL:3.7 mL:0.74 mL=18.5 mL) was then added to the agonist plates.

In data set [3] the target is T1, human D2R/β-arrestin. Briefly: Gi/cAMP agonist assay (Lance Ultra cAMP, forskolin). Type of data set: cell-based. The following applies: CHO-K1 cells expressing human D2R/β-arrestin; agonist mode, 2.5 μM forskolin. Here is the method: Eu-cAMP tracer solution (10 μl, PerkinElmer, 360 μl of Tracer in 17.64 ml kit buffer) and ULight-anti-cAMP solution (10 μl, 120 μL antibody in 17.88 ml kit buffer) was then added to each well.

A short description of data set [4]: Pharmacokinetic and brain distribution study in mice. The class given is in vivo. The following applies: single intraperitoneal dose 30 mg/kg, male C57BL/6 mice; for half-life / AUC / Cmax: mouse, ip. Here is the method:
Pharmacokinetic Studies on Mice Brains
Twelve male C57BL/6 mice were weighed and administered intraperitoneally with a dose of test compound (Examples 90, 157, 125) solution formulation. The dosing volume administered for the intraperitoneal route was at 10 mL/kg. Blood samples (approximately […]) were collected from retro-orbital plexus of each mouse under light isoflurane anesthesia at 0.08, 0.5, 1, 2, 4, and 8 hr. Following the collection of blood, plasma was also harvested by centrifugation and stored at −70° C. until analysis. After collection of plasma, the animals were euthanized and brain samples were isolated at 0.08, 0.5, 1, 2, 4, and 8 hr. Tissue samples (brain) were homogenized using ice-cold phosphate buffer saline (pH 7.4) and homogenates were stored below −70° C. until analysis. Total homogenate volume was three times the tissue weight. Concentrations of test compound in mouse plasma and brain samples were determined by LC-MS/MS method.
Identical extraction procedures were used for the plasma/brain homogenate study samples and the spiked plasma calibration standards: A 25 μL sample of either study sample (plasma/brain) or spiked calibration standard was added to individual pre-labeled micro-centrifuge tubes. A volume of 100 μL of IS (antipyrine, 500 ng/mL) prepared in acetonitrile was then added to the micro-centrifuge tubes, except in a sample used as a negative control where only acetonitrile was added and vortexed for 5 minutes. Samples were centrifuged for 20 minutes at the speed of 4000 rpm at 4° C. Following centrifugation, 100 μL of the supernatant was sampled from each centrifuge tube and transferred into insert vials. These vials remained within the auto-sampler for the LC/MS/MS analysis. Standards used for calibration were prepared by spiking 10 μL of the test compound in 190 μL of control (used as a negative control) mouse plasma/brain homogenate.
The plasma and brain concentration-time data of test compounds was provided for data analysis. The plasma and brain concentration-time data was then used for the pharmacokinetic analysis. Non-Compartmental-Analysis module in Phoenix® WinNonlin® (Version 6.3) was used to assess the pharmacokinetic parameters. Peak plasma concentrations (Cmax) and time for the peak plasma concentrations (Tmax) were the observed values. The areas under the concentration time curve (AUClast and AUCinf) were calculated by linear trapezoidal rule. The terminal elimination rate constant, ke was determined by regression analysis of the linear terminal portion of the log plasma concentration-time curve.
Illustrative results are presented in FIG. 2, the pharmacokinetic parameters are as follow: […]

Data set [5] in a line: Brain protein binding. The class given is in vitro ADME.
Data set [6] deals with T1, human D2R/β-arrestin. Description: cell-based. The following applies: β-arrestin Antagonist, CHO-K1 cells expressing human D2R/β-arrestin; antagonist mode, quinpirole 130 nM.
Procedure: Cells were prepared for assays by growing cultures for up to 2 weeks (from about 6-20 passages). A vial of frozen cells was thawed in a water bath held at 37° C. The cells were then transferred into a 50 ml tube with 10 ml growth media. The vial was rinsed with growth media and the contents transferred to the 50 ml tube. The 50 ml tube was centrifuged at 1200 rpm for 5 minutes at room temperature. […] When the cells reached about 90% confluence (approximately 3 days between passages), the cells were passaged and used for either the agonist or antagonist assays as described below.
The cells were prepared for β-arrestin assays as described above. The assays were performed using a PathHunter® β-Arrestin Detecting Kit (DiscoveRX). The cells were grown on 225 mm dishes, then washed once with 1×PBS (Cellgro), followed by digestion with 2.5 ml 1× Detachment reagent (DRX 92-0009) for approximately 2 minutes.
The target in data set [7] is T1, human D2R/β-arrestin. Briefly: cell-based. The following applies: cAMP Antagonist, CHO-K1 cells expressing human D2R/β-arrestin; antagonist mode, 2.5 μM forskolin and 2.7 nM quinpirole.
The mark [8] stands for this setting: brain, read-out: Brain T1/2 (converted).
[9] abbreviates: plasma, read-out: Plasma T1/2 (converted).

T1 sequence (P14416 whole entry): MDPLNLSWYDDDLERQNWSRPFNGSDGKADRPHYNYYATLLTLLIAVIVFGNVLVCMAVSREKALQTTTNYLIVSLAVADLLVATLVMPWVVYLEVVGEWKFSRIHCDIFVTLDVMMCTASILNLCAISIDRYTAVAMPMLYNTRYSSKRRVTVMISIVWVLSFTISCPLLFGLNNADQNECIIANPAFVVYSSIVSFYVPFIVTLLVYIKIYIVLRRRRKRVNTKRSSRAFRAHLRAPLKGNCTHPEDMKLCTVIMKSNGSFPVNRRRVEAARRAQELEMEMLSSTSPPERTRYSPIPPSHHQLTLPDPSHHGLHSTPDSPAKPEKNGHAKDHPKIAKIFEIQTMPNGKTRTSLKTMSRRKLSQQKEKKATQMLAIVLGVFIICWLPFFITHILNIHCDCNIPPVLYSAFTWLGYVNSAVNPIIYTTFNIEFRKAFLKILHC
D2 receptor, sequence (P14416 whole entry): as above

Regarding `CC1(Oc2ccc(Cl)cc2)CCN(CCOc2ccc(C(F)(F)F)cc2)CC1` [Compound 125, 4-(4-Chlorophenoxy)-4-methyl-1-(2-(4-(trifluoromethyl)phenoxy)ethyl) piperidine], the inhibitory constant (Ki) (in general, a dissociation constant, usually derived from enzyme kinetics or from competition with a known ligand) in data set [1] lay within 1000 to 10000 nM. In addition, the concentration giving a half-maximal response (EC50) (in general, the concentration at which the effect is half-maximal) was 10000 to 30000 nM in data set [2] and 100 to 1000 nM in data set [3]. The “Brain AUC” value in data set [4] (brain) came out at 222.3 µM·h. Further, the “Brain Cmax” value in data set [4] (brain) turned out to be 37.9 µM. The figures for the half-life in data set [4] (setting [8]) and in data set [4] (setting [9]) were 7 h and 13.4 h, respectively. Besides, the AUC (commonly the area under the concentration-time curve, a measure of exposure) in data set [4] (plasma) worked out at 69.6 µM·h. Besides, the maximum concentration (Cmax) – broadly, the peak of the concentration-time curve – in data set [4] (plasma) turned out to be 19.8 µM. Moreover, the fraction unbound (in general, free concentration divided by total concentration) in data set [5] was 0.002. In addition, the IC50 in data set [6] and in data set [7] was more than 30000 nM throughout.

Turning to `CC1(Oc2ccc(Cl)cc2)CCN(CCOc2ccc(F)cc2C(F)(F)F)CC1` [Compound 157, 4-(4-chlorophenoxy)-1-(2-(4-fluoro-2-(trifluoromethyl)phenoxy)ethyl)-4-methylpiperidine], the inhibitory constant (Ki) in data set [1] was in the range of 100 to 1000 nM. In addition, the EC50 was more than 30000 nM in data set [2] and 100 to 1000 nM in data set [3]. Further, the “Brain AUC” value in data set [4] (brain) stood at 70.4 µM·h. The “Brain Cmax” value in data set [4] (brain) was determined as 7.03 µM. For the same compound, the half-life in data set [4] (setting [8]) was 6 h; in data set [4] (setting [9]), 6.2 h. The compound further showed an area under the curve (AUC) in data set [4] (plasma) of 14 µM·h. In data set [4] (plasma), this compound registered a Cmax of 2.47 µM. The same compound came in with a free fraction (fraction unbound) in data set [5] of less than 0.001. The IC50 in data set [6] and in data set [7] was 100 to 1000 nM in each case.
